Results taken from patent publication US20100310579A1, “METHOD FOR INHIBITING ANGIOGENESIS OR FOR TREATMENT OF CANCER” (Faron Ventures Oy, priority 2007, published 2010).

Assays:
Assay type in all cases: in vivo
[1] = tested on: CD31-positive vessels in melanoma tumors; assay: CD31-positive vessels in melanoma tumors (immunohistochemistry, neoangiogenesis); details: melanoma tumors resected d10, treated vs control mice, FIG. 3
Experimental: (§1) The tumor model was established as above. The animals were treated every second day with anti-VAP-1 mAb (7-106+7-88, 100 μg each/mouse) or with a negative control mAb HB151 (200 μg/mouse, ip) (Merinen, M., H. Irjala, M. Salmi, I. Jaakkola, A. Hanninen, and S. Jalkanen. 2005. e. Am. J. Pathol. 166:793-800). The antibodies were produced in serum and BSA-free medium, concentrated, and dialyzed against PBS. Another group of mice were treated with the VAP-1 inhibitor SZE 5302 (50 mg/kg, ip, daily) or with the vehicle (saline) (Koskinen, K., P. J. Vainio, D. J. Smith, M. Pihlavisto, S. Yla-Herttuala, S. Jalkanen, and M. Salmi. 2004. Blood 103:3388-3395). The growth of the tumor was then followed using bioluminescence imaging or volume measurements as described above.
At the end of the experiment, tumors were excised from the mice and processed for immunohistochemical staining. Anti-mouse CD31 mAb (MEC13.3, IHC formula, 1:300 dilution; Pharmingen) and a negative control mAb (9B5) were used for indirect immunoperoxidase stainings. The sections were counterstained with hematoxylin-eosin, and mounted in Depex. In certain cases, formalin-fixed, paraffin embedded sections were stained with HE. The CD31-positive vessels or vessels in HE-stained sections were enumerated by counting the number of vessels in the whole tumor area using a 400× magnification. […]

[2] = tested on: myeloid-derived suppressor cells (MDSC) in melanoma tumors; assay: CD11b-positive myeloid-derived suppressor cells in melanoma tumors (microscopic counting); details: wt mice treated with inhibitor vs vehicle, FIG. 6
From the text: FIG. 6. VAP-1 selectively supports recruitment of pro-angiogenic myeloid-derived suppressor cells in melanoma tumors. CD11b-positive cells were quantified by microscopic counting in wt and VAP-1 deficient mice and in wt treated with vehicle or SZE5302 inhibitor. Data (mean±SEM) are from 9 mice per group, ** p<0.01.
At the end of the experiment, tumors were excised from the mice and processed for immunohistochemical staining. Anti-mouse CD31 mAb (MEC13.3, IHC formula, 1:300 dilution; Pharmingen) and a negative control mAb (9B5) were used for indirect immunoperoxidase stainings. The sections were counterstained with hematoxylin-eosin, and mounted in Depex. In certain cases, formalin-fixed, paraffin embedded sections were stained with HE. The CD31-positive vessels or vessels in HE-stained sections were enumerated by counting the number of vessels in the whole tumor area using a 400× magnification. Sections were also stained with CD11b and Gr-1 antibodies.

[3] = tested on: EL-4 lymphoma cells; assay: EL-4 lymphoma growth in mice (tumor volume); details: wt mice, s.c. EL-4 lymphoma, treated vs control, FIG. 5b
Experimental: FIG. 5. Defective migration of myeloid-derived suppressor cells (MDSC), angiogenesis and growth of lymphoma in VAP-1 deficient mice (a, b). EL-4 lymphoma cells were injected subcutaneously into (a) wt and VAP-1 deficient mice and (b) control and SZE5302 treated mice, and the growth of the lymphomas (volume) was measured kinetically. VAP-1 activity in control and SZE5302 treated mice was measured using enzyme assay (c) Immunohistochemical stainings of (d) VAP-1 and (e) CD31 expression in tumor vessels in EL-4 lymphoma grown in wt and VAP-1 −/− mice. Some positive vessels are pointed out by arrows. Lymphoma cells also express low levels of CD31. Bar 50 μm. The numbers of (f) CD31 positive vessels and (g) CD11b positive cells was determined using immunohistochemistry. […]
In the melanoma model, age- and sex-matched VAP-1 deficient and wt C57/B16 mice were used (Stolen, C. M., F. Marttila-Ichihara, K. Koskinen, G. G. Yegutkin, R. Turja, P. Bono, M. Skurnik, A. Hanninen, S. Jalkanen, and M. Salmi. 2005. Immunity 22:105-115). […] Immediately thereafter, a substrate for the luciferase (D-luciferin sodium salt, Synchem, Kassel, Germany; 150 mg/kg i.p.) was injected, and 10 min later the light generated was recorded using bioluminescence imaging (IVIS 50 workstation, Xenogen). The signal intensities were quantified as the photon counts using the Living Image software (Xenogen). […]

[4] = tested on: Luciferase-containing B16 melanoma cells; assay: B16 melanoma tumor growth in mice (bioluminescence imaging, tumor volume)
Experimental: In the melanoma model, age- and sex-matched VAP-1 deficient and wt C57/B16 mice were used (Stolen, C. M., F. Marttila-Ichihara, K. Koskinen, G. G. Yegutkin, R. Turja, P. Bono, M. Skurnik, A. Hanninen, S. Jalkanen, and M. Salmi. 2005. Immunity 22:105-115). Luciferase-containing B16 melanoma cells were purchased from Xenogen. Tumor cells (4×10^5 in 200 μl) were injected subcutaneously into the flanks of isoflurane anesthesized mice. Immediately thereafter, a substrate for the luciferase (D-luciferin sodium salt, Synchem, Kassel, Germany; 150 mg/kg i.p.) was injected, and 10 min later the light generated was recorded using bioluminescence imaging (IVIS 50 workstation, Xenogen). The signal intensities were quantified as the photon counts using the Living Image software (Xenogen). […] The growth of tumors was then followed for 10 d, and at the indicated time points, the animals were re-subjected to the bioluminescence imaging. The diameter of the tumor was also measured using an electronic caliber (Mitutoyo, Japan). The volume of the tumor was approximated using the formula: 0.5×(longest diameter)×(shortest diameter). In the lymphoma model, EL-4 cells were injected into the abdominal area (10×10^6 cells/mouse in 200 μl of RPMI1640. tumor growth was followed using the electronic caliber.
as §1

CN(N)[C@H]1Cc2ccccc2[C@@H]1O [SZE5302]
number of CD31+ positive (new) vessels in the tumor [1]: significantly fewer
number of MDSC in the melanomas [2]: strongly reduced
tumor growth (lymphoma volume) [3]: strongly inhibited tumor growth
tumor volume (physical measurement) ([4]; day 7, wt mice, B16 melanoma, 50 mg/kg ip daily): significant reduction
melanoma size ([4]; day 10, wt mice, B16 melanoma, 50 mg/kg ip daily): clearly smaller
tumor growth ([4]; wt mice, s.c. B16 melanoma, 50 mg/kg ip daily vs vehicle, FIG. 2B): significant decrease in tumor growth
